Results published in patent US7842279B2, “F-18 peptides for pre targeted positron emission tomography imaging” (Immunomedics, Inc., priority 2005, dated 2010).

Tested on: LS174T human colon adenocarcinoma
Test: PET imaging of human colon cancer tissue in nude mice
Format: in vivo
Settings: female athymic nu/nu mice, s.c. LS174T xenograft, 20 μCi i.v.
Experimental: A humanized MN-14 IgG antibody is prepared as described in U.S. Pat. No. 6,676,924. ^18F-labeled bisulfite addition complex is prepared as described in Example 8 and is linked to the humanized MN-14 IgG by reductive amination with sodium cyanoborohydride using standard techniques (see, e.g., Gray, 1978, Meth. Enzymol. 50:155-160.). Alternatively, an antibody or antibody fragment is directly labeled with [^18F]Fluorobenzaldehyde in the presence of hydroxylamine, thiosemicarbazide or hydrazine. Gel-permeation column chromatography is used to separated the 4-[^18F]Fluorobenzaldehyde/hMN-14 immunoconjugate from unconjugated 4-[^18F]Fluorobenzaldehyde bisulfite addition complex. The 4-[^18F]Fluorobenzaldehyde/hMN-14 immunoconjugate is used to localize human colon cancer tissue in nude mice. At 4-5 weeks female athymic mice (nu/nu, Harlan, Indianapolis, Ind.) are injected s.c. with 0.2 ml of a 10% suspension of LS174T human colon adenocarcinoma prepared from a xenograft serially propagated in an athymic mouse (Sharkey et al., Cancer Res., 50: 828-34 (1990)). After waiting 2 weeks for tumor development, the mice are injected i.v. with 20 μCi of 4-[^18F]Fluorobenzaldehyde/hMN-14 immunoconjugate. Tumor tissue is imaged by PET imaging, using standard ^18F detection methods.

Substance: 4-[^18F]Fluorobenzaldehyde/hMN-14 immunoconjugate
- tumor detection by PET imaging (F-18 distribution): detected as hot spots of F-18 distribution against a low-level background of F-18
